Organism: Rattus norvegicus
Experiment: Open TG-GATES - Regimen: Single
Assay type: toxicity, organism-based, Sprague-Dawley
Design: regimen Single, gender Male, age 6 weeks
Conditions: in vivo, po, 100 mg/kg, route gavage, dose level High; for APTT / Bas / Eos / Fbg / Hb / Ht / Lym / MCH / MCHC / MCV / Mono / Neu / PT / Plat / RBC / Ret / WBC: tissue Blood; for KIDNEY_L / KIDNEY_R / KIDNEY_TOTAL: tissue Kidney; for LIVER: tissue Liver; for A/G / ALP / ALT / AST / BUN / CRE / Ca / Cl / DBIL / GLC / IP / K / LDH / Na / PL / RALB / TBIL / TC / TG / TP / gamma-GTP: tissue Plasma

Q: For `OCCOCCN1CCN(C(c2ccccc2)c2ccc(Cl)cc2)CC1` (configuration not stated) [HYDROXYZINE], which TERMINAL_BW (3 h) is on record?
A: 192.6 g

Q: And the APTT (3 h)?
A: 16.4 s

Q: What about the Bas (3 h) of the same molecule?
A: 0.2%

Q: And the Eos (3 h)?
A: 0.8%

Q: And the Fbg (3 h)?
A: 276.2 mg/dL

Q: What about the Hb (3 h) of the same molecule?
A: 12.4 g/dL

Q: And the Ht (3 h)?
A: 38.5%

Q: What about the Lym (3 h) of the same molecule?
A: 79.6%

Q: What about the MCH (3 h) of the same molecule?
A: 21.5 pg

Q: And the MCHC (3 h)?
A: 32.3%

Q: What about the MCV (3 h) of the same molecule?
A: 66.5 fL

Q: What about the Mono (3 h) of the same molecule?
A: 2.8%

Q: And the Neu (3 h)?
A: 16%

Q: What about the PT (3 h) of the same molecule?
A: 16 s

Q: And the Plat (3 h)?
A: 107.8 x10_4/uL

Q: What about the RBC (3 h) of the same molecule?
A: 579.6 x10_4/ul

Q: And the Ret (3 h)?
A: 9.2%

Q: What about the WBC (3 h) of the same molecule?
A: 66.5 x10_2/uL

Q: What about the KIDNEY_L (3 h) of the same molecule?
A: 0.9 g

Q: What about the KIDNEY_R (3 h) of the same molecule?
A: 0.9 g

Q: And the KIDNEY_TOTAL (3 h)?
A: 1.8 g

Q: What about the LIVER (3 h) of the same molecule?
A: 8.5 g

Q: And the A/G (3 h)?
A: 0.9

Q: And the ALP (3 h)?
A: 1704.8 IU/L

Q: What about the ALT (3 h) of the same molecule?
A: 45.4 IU/L

Q: What about the AST (3 h) of the same molecule?
A: 78 IU/L

Q: What about the BUN (3 h) of the same molecule?
A: 10.2 mg/dL

Q: What about the CRE (3 h) of the same molecule?
A: 0.2 mg/dL

Q: What about the Ca (3 h) of the same molecule?
A: 10.7 mg/dL

Q: And the Cl (3 h)?
A: 105.8 meq/L

Q: And the DBIL (3 h)?
A: 0.008 mg/dL

Q: And the GLC (3 h)?
A: 167.2 mg/dL

Q: What about the IP (3 h) of the same molecule?
A: 9.5 mg/dL

Q: What about the K (3 h) of the same molecule?
A: 4.4 meq/L

Q: What about the LDH (3 h) of the same molecule?
A: 107.6 IU/L

Q: And the Na (3 h)?
A: 142.4 meq/L

Q: What about the PL (3 h) of the same molecule?
A: 132.4 mg/dL

Q: And the RALB (3 h)?
A: 2.5 g/dL

Q: And the TBIL (3 h)?
A: 0.048 mg/dL

Q: What about the TC (3 h) of the same molecule?
A: 65.8 mg/dL

Q: What about the TG (3 h) of the same molecule?
A: 40 mg/dL

Q: What about the TP (3 h) of the same molecule?
A: 5.4 g/dL

Q: And the gamma-GTP (3 h)?
A: 1 IU/L

Q: What about the TERMINAL_BW (6 h) of the same molecule?
A: 190.6 g

Q: What about the APTT (6 h) of the same molecule?
A: 16.5 s

Q: And the Bas (6 h)?
A: 0%

Q: And the Eos (6 h)?
A: 0.8%

Q: What about the Fbg (6 h) of the same molecule?
A: 260.2 mg/dL

Q: What about the Hb (6 h) of the same molecule?
A: 12.8 g/dL

Q: And the Ht (6 h)?
A: 39.9%

Q: And the Lym (6 h)?
A: 80.4%

Q: And the MCH (6 h)?
A: 21.2 pg

Q: And the MCHC (6 h)?
A: 32.1%

Q: What about the MCV (6 h) of the same molecule?
A: 65.8 fL

Q: What about the Mono (6 h) of the same molecule?
A: 2.6%

Q: And the Neu (6 h)?
A: 15.6%

Q: What about the PT (6 h) of the same molecule?
A: 16 s

Q: And the Plat (6 h)?
A: 118.2 x10_4/uL

Q: What about the RBC (6 h) of the same molecule?
A: 606.4 x10_4/ul

Q: And the Ret (6 h)?
A: 8.5%

Q: What about the WBC (6 h) of the same molecule?
A: 87.3 x10_2/uL

Q: What about the KIDNEY_L (6 h) of the same molecule?
A: 0.9 g

Q: And the KIDNEY_R (6 h)?
A: 0.9 g

Q: What about the KIDNEY_TOTAL (6 h) of the same molecule?
A: 1.8 g

Q: What about the LIVER (6 h) of the same molecule?
A: 7.9 g

Q: What about the A/G (6 h) of the same molecule?
A: 0.8

Q: And the ALP (6 h)?
A: 1674.2 IU/L

Q: What about the ALT (6 h) of the same molecule?
A: 39.8 IU/L

Q: And the AST (6 h)?
A: 78.2 IU/L

Q: What about the BUN (6 h) of the same molecule?
A: 8.6 mg/dL

Q: And the CRE (6 h)?
A: 0.2 mg/dL

Q: And the Ca (6 h)?
A: 10.7 mg/dL

Q: What about the Cl (6 h) of the same molecule?
A: 106.8 meq/L

Q: And the DBIL (6 h)?
A: 0.01 mg/dL

Q: And the GLC (6 h)?
A: 180.8 mg/dL

Q: What about the IP (6 h) of the same molecule?
A: 9.7 mg/dL

Q: What about the K (6 h) of the same molecule?
A: 4.2 meq/L

Q: What about the LDH (6 h) of the same molecule?
A: 64.2 IU/L

Q: And the Na (6 h)?
A: 141.8 meq/L

Q: What about the PL (6 h) of the same molecule?
A: 121.8 mg/dL

Q: And the RALB (6 h)?
A: 2.4 g/dL

Q: And the TBIL (6 h)?
A: 0.062 mg/dL

Q: What about the TC (6 h) of the same molecule?
A: 63.8 mg/dL

Q: And the TG (6 h)?
A: 28 mg/dL

Q: What about the TP (6 h) of the same molecule?
A: 5.3 g/dL

Q: What about the gamma-GTP (6 h) of the same molecule?
A: 1 IU/L

Q: What about the TERMINAL_BW (9 h) of the same molecule?
A: 190.3 g

Q: And the APTT (9 h)?
A: 15.9 s

Q: And the Bas (9 h)?
A: 0.2%

Q: And the Eos (9 h)?
A: 0.8%

Q: What about the Fbg (9 h) of the same molecule?
A: 288.6 mg/dL

Q: What about the Hb (9 h) of the same molecule?
A: 13 g/dL

Q: And the Ht (9 h)?
A: 40.5%

Q: And the Lym (9 h)?
A: 78.8%

Q: And the MCH (9 h)?
A: 21.5 pg

Q: And the MCHC (9 h)?
A: 32%

Q: And the MCV (9 h)?
A: 67.2 fL

Q: What about the Mono (9 h) of the same molecule?
A: 2.8%

Q: And the Neu (9 h)?
A: 16.6%

Q: What about the PT (9 h) of the same molecule?
A: 15.6 s

Q: What about the Plat (9 h) of the same molecule?
A: 116.3 x10_4/uL

Q: And the RBC (9 h)?
A: 603.4 x10_4/ul

Q: And the Ret (9 h)?
A: 8.6%

Q: What about the WBC (9 h) of the same molecule?
A: 75.7 x10_2/uL

Q: And the KIDNEY_L (9 h)?
A: 0.9 g

Q: What about the KIDNEY_R (9 h) of the same molecule?
A: 0.9 g

Q: And the KIDNEY_TOTAL (9 h)?
A: 1.8 g

Q: What about the LIVER (9 h) of the same molecule?
A: 7.7 g

Q: And the A/G (9 h)?
A: 0.9

Q: And the ALP (9 h)?
A: 1671.6 IU/L

Q: And the ALT (9 h)?
A: 36.2 IU/L

Q: What about the AST (9 h) of the same molecule?
A: 76.6 IU/L

Q: What about the BUN (9 h) of the same molecule?
A: 8.2 mg/dL

Q: And the CRE (9 h)?
A: 0.2 mg/dL

Q: What about the Ca (9 h) of the same molecule?
A: 10.6 mg/dL

Q: And the Cl (9 h)?
A: 106.6 meq/L

Q: What about the DBIL (9 h) of the same molecule?
A: 0.016 mg/dL

Q: What about the GLC (9 h) of the same molecule?
A: 182.4 mg/dL

Q: What about the IP (9 h) of the same molecule?
A: 10.6 mg/dL

Q: And the K (9 h)?
A: 4.3 meq/L

Q: What about the LDH (9 h) of the same molecule?
A: 63 IU/L

Q: What about the Na (9 h) of the same molecule?
A: 142 meq/L

Q: What about the PL (9 h) of the same molecule?
A: 124.4 mg/dL

Q: And the RALB (9 h)?
A: 2.5 g/dL

Q: And the TBIL (9 h)?
A: 0.066 mg/dL

Q: And the TC (9 h)?
A: 64.6 mg/dL

Q: What about the TG (9 h) of the same molecule?
A: 34.2 mg/dL

Q: And the TP (9 h)?
A: 5.4 g/dL

Q: What about the gamma-GTP (9 h) of the same molecule?
A: 1 IU/L

Q: And the TERMINAL_BW (24 h)?
A: 198.7 g

Q: And the APTT (24 h)?
A: 16.8 s

Q: And the Bas (24 h)?
A: 0%

Q: And the Eos (24 h)?
A: 0.8%

Q: What about the Fbg (24 h) of the same molecule?
A: 253.6 mg/dL

Q: What about the Hb (24 h) of the same molecule?
A: 13.3 g/dL

Q: And the Ht (24 h)?
A: 40.4%

Q: And the Lym (24 h)?
A: 78.4%

Q: And the MCH (24 h)?
A: 22.2 pg

Q: And the MCHC (24 h)?
A: 32.9%

Q: And the MCV (24 h)?
A: 67.4 fL

Q: What about the Mono (24 h) of the same molecule?
A: 3.6%

Q: What about the Neu (24 h) of the same molecule?
A: 16.4%

Q: And the PT (24 h)?
A: 16.8 s

Q: What about the Plat (24 h) of the same molecule?
A: 123.7 x10_4/uL

Q: What about the RBC (24 h) of the same molecule?
A: 599.6 x10_4/ul

Q: And the Ret (24 h)?
A: 7.7%

Q: What about the WBC (24 h) of the same molecule?
A: 74.7 x10_2/uL

Q: What about the KIDNEY_L (24 h) of the same molecule?
A: 0.9 g

Q: What about the KIDNEY_R (24 h) of the same molecule?
A: 0.9 g

Q: What about the KIDNEY_TOTAL (24 h) of the same molecule?
A: 1.9 g

Q: What about the LIVER (24 h) of the same molecule?
A: 9 g

Q: What about the A/G (24 h) of the same molecule?
A: 0.8

Q: What about the ALP (24 h) of the same molecule?
A: 1880 IU/L

Q: And the ALT (24 h)?
A: 45.6 IU/L

Q: What about the AST (24 h) of the same molecule?
A: 75.8 IU/L

Q: And the BUN (24 h)?
A: 15.6 mg/dL

Q: What about the CRE (24 h) of the same molecule?
A: 0.2 mg/dL

Q: What about the Ca (24 h) of the same molecule?
A: 11.1 mg/dL

Q: What about the Cl (24 h) of the same molecule?
A: 107 meq/L

Q: What about the DBIL (24 h) of the same molecule?
A: 0.016 mg/dL

Q: And the GLC (24 h)?
A: 181.6 mg/dL

Q: And the IP (24 h)?
A: 7.7 mg/dL

Q: And the K (24 h)?
A: 4.2 meq/L

Q: And the LDH (24 h)?
A: 76 IU/L

Q: And the Na (24 h)?
A: 141.4 meq/L

Q: And the PL (24 h)?
A: 135 mg/dL

Q: What about the RALB (24 h) of the same molecule?
A: 2.6 g/dL

Q: What about the TBIL (24 h) of the same molecule?
A: 0.06 mg/dL

Q: And the TC (24 h)?
A: 75.4 mg/dL

Q: And the TG (24 h)?
A: 52.2 mg/dL

Q: What about the TP (24 h) of the same molecule?
A: 5.6 g/dL

Q: And the gamma-GTP (24 h)?
A: 0.6 IU/L
